Experimental findings from patent US20020173502A1, “Pharmaceutically active compounds” (priority 2001, published 2002) are described below.

One series addresses T1, cGMP PDE5 (Homo sapiens, UniProt O76074).
T1 construct: were obtained from human corpus cavernosum or human platelets; from tissue; host or cells: human corpus cavernosum or human platelets
The series can be described thus: Phosphodiesterase (PDE) inhibitory activity, in vitro IC50. Format: biochemical. The settings on record: read-out: IC50 as an inhibitor of cGMP PDE5. The procedure: The compounds of the present invention are cGMP PDE5 inhibitors. In vitro PDE inhibitory activities against cyclic guanosine 3′,5′-monophosphate (CGMP) and cyclic adenosine 3′,5′-monophosphate (cAMP) phosphodiesterases were determined by measurement of their IC50 values (the concentration of compound required for 50% inhibition of enzyme activity).
The required PDE enzymes were isolated from a variety of sources, including human corpus cavernosum, human and rabbit platelets, human cardiac ventricle, human skeletal muscle and human and canine retina, essentially by the method of W. J. Thompson and M. M. Appleman (Biochem., 1971, 10, 311). In particular, the cGMP-specific PDE (PDE5) and the cGMP-inhibited cAMP PDE (PDE3) were obtained from human corpus cavernosum or human platelets; the cGMP-stimulated PDE (PDE2) was obtained from human corpus cavernosum and human platelets; the calcium/calmodulin (Ca/CAM)-dependent PDE (PDE1) from human cardiac ventricle; the cAMP-specific PDE (PDE4) from human skeletal muscle and human recombinant, expressed in SF9 cells; and the photoreceptor PDE (PDE6) from human or canine retina. Phosphodiesterases 7-11 were generated from full length human recombinant clones transfected into SF9 cells. […]

A short description of series [1]: Hepatocyte incubation, metabolism followed by turbulent flow LC-MS-MS. The format is in vitro ADME, human, dog. The settings on record: test compound 2 μM, sampled 0-180 minutes; transitions 439 to 84 (ketone) and 441 to 84 (alcohol). The procedure: Hepatocyte incubations were used to determine the metabolism of both compound 1A according to the present invention and also the compound of Preparation 1. In such testing a marker compound was routinely included to ensure reproducible, active preparations were obtained.
Standard methodologies relating to hepatocyte testing can be found in: Carlille, D, Zomorodi, K, Houston, B; Drug Met. Dispos. 1997, 25(8), pp903-911, “Scaling factors to relate drug metabolic clearance in hepatic microsomes isolated hepatocytes, and the intact liver”.
Marker compound: 0.3 mM Propranolol in 100% DMSO.
Test materials (e.g. compound 1A) 1 mg/ml stocks or 3 mM in 100% DMSO.
Human hepatocytes used at a concentration of 2×10^6 cells/ml (per compound tested).
Dog hepatocytes used at a concentration of 1×10^6 cells/ml (per compound tested).
William's E buffer (1 pot of William's E powder from Sigma, 900 ml distilled water, 2.2 g sodium bicarbonate, 100 ml Foetal Bovine Serum) STOP solution (Midazolam internal standard plus acetonitrile: 600 μl of 10 μg/ml midazolam +30 ml acetonitrile). […]
Hepatocyte viability was determined using the Trypan Blue Exclusion method by gentle mixing of 350 μl KH buffer+100 μI Trypan Blue solution+50 μl cell suspension in an eppendorf tube. The cells were then counted using a haemocytometer. […] The number of viable (colourless) cells within 10 squares was recorded. […]

Series [2] can be described thus: In vivo interconversion of compound 1A and the compound of Preparation 1. Conditions: no species or method printed.

As to `CCCCOc1ncc(C(C)O)cc1-c1nc2c(CC)n(C3CN(CC)C3)nc2c(=O)[nH]1` (centres unmarked) [Example 1A, 5-[2-Butoxy-5-(1-hydroxyethyl)-3-pyridinyl]-3-ethyl-2-(1-ethyl-3-azetidinyl)-2,6-dihydro-7H-pyrazolo[4,3-d]pyrimidin-7-one], the IC50 on cGMP PDE5 was found to be 0.825 µM. In addition, the “mass transition of the starting compound during hepatocyte incubation; product transition then appears” value in series [1] is given as “reduces to levels below the detection limit of the equipment”. The “conversion in vivo (pro-drug / metabolite relation)” value in series [2] is listed as “converted in vivo to provide the compound of Preparation 1”.
With `CCCCOc1ncc(C(C)=O)cc1-c1nc2c(CC)n(C3CN(CC)C3)nc2c(=O)[nH]1` [Preparation 1, 5-(5-acetyl-2-butoxy-3-pyridinyl)-3-ethyl-2-(1-ethyl-3-azetidinyl)-2,6-dihydro-7H-pyrazolo[4,3-d]pyrimidin-7-one, reference compound], the “mass transition of the starting compound during hepatocyte incubation; product transition then appears” value in series [1] was “reduces to levels below the detection limit of the equipment”. In series [2], the “conversion in vivo (pro-drug / metabolite relation)” value was “Compound 1A is a metabolite of the compound of Preparation 1”.
